Paper PMC3433420 (PLoS ONE, 2012)
Residues, ends and D or L forms follow the SMILES beside them.

Experiments:
[1] = biological target: SYK-NC tandem SH2 domains (Homo sapiens, UniProt P43405); experiment: FP saturation binding assay
[2] = biological target: T1, PTPN11-NC tandem SH2 domains (Homo sapiens, UniProt Q06124); experiment: FP saturation binding assay
T1 sequence (Q06124 6-216 limits assumed): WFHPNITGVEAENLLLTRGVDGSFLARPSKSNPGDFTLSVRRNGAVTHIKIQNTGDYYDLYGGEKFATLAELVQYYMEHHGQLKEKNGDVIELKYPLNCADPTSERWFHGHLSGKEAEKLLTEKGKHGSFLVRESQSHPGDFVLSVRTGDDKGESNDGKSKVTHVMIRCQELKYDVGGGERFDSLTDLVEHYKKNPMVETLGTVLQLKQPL

SH2D1A SH2 domain = biological target: T2, SH2D1A SH2 domain (Homo sapiens, UniProt O60880); experiment: FP saturation binding assay
T2 sequence (O60880 6-104 limits assumed): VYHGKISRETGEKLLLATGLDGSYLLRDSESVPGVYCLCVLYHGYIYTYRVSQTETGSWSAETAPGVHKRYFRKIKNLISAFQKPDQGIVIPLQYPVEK

SH2D1B SH2 domain = biological target: T3, SH2D1B SH2 domain (Homo sapiens, UniProt O14796); experiment: FP saturation binding assay
T3 sequence (O14796 5-101 limits assumed): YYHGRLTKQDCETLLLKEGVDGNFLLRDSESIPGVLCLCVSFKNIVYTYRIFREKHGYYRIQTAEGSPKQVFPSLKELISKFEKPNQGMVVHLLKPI

NCK2 SH2 domain = NCK2 SH2 domain (Homo sapiens, UniProt O43639); experiment: FP saturation binding assay
[3] = biological target: T4, PLCG1-NC tandem SH2 domains (Homo sapiens, UniProt P19174); experiment: FP saturation binding assay; conditions: Protein PLCG1-NC; FP saturation binding, high-confidence ErbB interactions; mean over replicate hits
T4 construct: the tandem protein was included in our analysis with all internal amino acids linking the domains; 6X His; thioredoxin; made in house; host or cells: E. coli BL21(DE3)pLysS
T4 sequence (P19174 550-756 limits assumed): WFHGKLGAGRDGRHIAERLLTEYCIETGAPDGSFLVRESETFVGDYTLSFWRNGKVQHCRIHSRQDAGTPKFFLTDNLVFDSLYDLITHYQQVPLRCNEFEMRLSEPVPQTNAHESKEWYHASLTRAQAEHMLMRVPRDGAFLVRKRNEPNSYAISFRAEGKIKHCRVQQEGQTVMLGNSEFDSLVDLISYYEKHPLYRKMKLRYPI

[4] = biological target: PIK3R2-NC tandem SH2 domains (Homo sapiens, UniProt O00459); experiment: FP saturation binding assay
RASA1-N SH2 domain [5] = biological target: T5, RASA1-N SH2 domain (Homo sapiens, UniProt P20936); experiment: FP saturation binding assay
T5 sequence (P20936 181-272 limits assumed): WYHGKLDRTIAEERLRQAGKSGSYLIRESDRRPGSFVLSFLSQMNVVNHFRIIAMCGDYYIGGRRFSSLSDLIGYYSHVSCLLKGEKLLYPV

SHC1-PTB domain = biological target: T6, SHC1-PTB domain (Homo sapiens, UniProt P29353); experiment: FP saturation binding assay
T6 sequence (P29353 156-339 limits assumed): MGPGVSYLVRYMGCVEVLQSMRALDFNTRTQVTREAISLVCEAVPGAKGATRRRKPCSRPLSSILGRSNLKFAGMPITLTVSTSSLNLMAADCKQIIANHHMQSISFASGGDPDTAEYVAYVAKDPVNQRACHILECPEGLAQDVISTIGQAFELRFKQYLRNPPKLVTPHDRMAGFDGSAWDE

YES1 SH2 domain = biological target: T7, YES1 SH2 domain (Homo sapiens, UniProt P07947); experiment: FP saturation binding assay; conditions: high-confidence ErbB interactions
T7 construct: 6X His; thioredoxin; made in house; host or cells: BL21(DE3)pLysS E. coli
Procedure, shortened: (§1)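 Rhodamine-labeled phosphopeptides (10 nM final) titrated with SH2 domain protein (0.002–10 µM, 12 points) in 20 mM HEPES, 100 mM KCl, 0.1% Tween-20, 5 mM DTT, pH 7.8; 20 min, room temperature, dark. FP read at 530/555 nm; KD fitted by nonlinear regression after thioredoxin background correction and outlier removal.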

RASA1-N SH2 domain [6] = biological target: T5, RASA1-N SH2 domain; experiment: FP competition assay; type: binding; set-up: 6X His; thioredoxin; made in house; host or cells: E. coli BL21(DE3)pLysS; conditions: RASA1N; labeled peptide ErbB2pY1196; Fig. 3 graph A; read-out: Ki (obs)
Protocol: Unlabeled phosphopeptides were synthesized with some modifications to the previously described protocol. […] Unlabeled competitor peptides were prepared at 11 serial 1∶3 dilutions in assay buffer; one control with no unlabeled competitor peptides was also included with each experimental set. The fluorescent peptide, protein, and unlabeled peptide mixtures were allowed to incubate for a minimum of 20 minutes in 384-well plates and polarization signals were measured using the Analyst GT multimode reader as previously described above. Inhibition curves were constructed by four-parameter log-logistic regression using the “drc” package in R with the parameters for maximum and minimum fluorescence fixed according to Z’ factor positive and negative control values. IC50 values were estimated from these fits under a one-site competition binding model and Ki calculated according to the equation developed by.

GRB7 SH2 domain = GRB7 SH2 domain (Homo sapiens, UniProt Q14451); experiment: FP saturation binding assay; conditions: KD for GRB7, FP saturation assay
SRC SH2 domain = biological target: T8, SRC SH2 domain (Homo sapiens, UniProt P12931); experiment: FP saturation binding assay; conditions: protein SRC, high-confidence ErbB interactions, mean of replicate hits
T8 construct: between the c-Src SH2 domain and ErbB1 in our FP assay; 6X His; thioredoxin; made in house; host or cells: E. coli BL21(DE3)pLysS
Procedure, shortened: as §1

GRAP2 SH2 domain = biological target: T9, GRAP2 SH2 domain (Homo sapiens, UniProt O75791); experiment: FP saturation binding assay
T9 sequence (O75791 58-149 limits assumed): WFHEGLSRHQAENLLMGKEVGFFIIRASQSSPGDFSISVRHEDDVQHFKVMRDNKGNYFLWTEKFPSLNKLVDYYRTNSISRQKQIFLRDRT

SH2D2A SH2 domain = SH2D2A SH2 domain (Homo sapiens, UniProt Q9NP31); experiment: FP saturation binding assay
PIK3R3-N SH2 domain = biological target: T10, PIK3R3-N SH2 domain (Homo sapiens, UniProt Q92569); experiment: FP saturation binding assay; conditions: protein PIK3R3-N; high-confidence ErbB interactions; mean of replicate hits
T10 construct: 6X His; thioredoxin; made in house; host or cells: E. coli BL21(DE3)pLysS
Procedure, shortened: as §1

[7] = biological target: T11, PIK3R3-NC tandem SH2 domains (Homo sapiens, UniProt Q92569); experiment: FP saturation binding assay; conditions: protein PIK3R3-NC; high-confidence ErbB interactions; mean of replicate hits
T11 construct: the tandem protein was included in our analysis with all internal amino acids linking the domains; 6X His; thioredoxin; made in house; host or cells: E. coli BL21(DE3)pLysS
Procedure, shortened: as §1

PTK6 SH2 domain = biological target: T12, PTK6 SH2 domain (Homo sapiens, UniProt Q13882); experiment: FP saturation binding assay; conditions: protein PTK6; high-confidence ErbB interactions; mean of replicate hits
T12 construct: from the PTK6 SH2 domain; 6X His; thioredoxin; made in house; host or cells: E. coli BL21(DE3)pLysS
Procedure, shortened: as §1

PIK3R1-N SH2 domain = biological target: T13, PIK3R1-N SH2 domain (Homo sapiens, UniProt P27986); experiment: biochemical; type: binding; conditions: protein PIK3R1-N; high-confidence ErbB interactions; mean of replicate hits
T13 construct: thioredoxin; made in house; host or cells: E. coli BL21(DE3)pLysS

PLCG1-C SH2 domain = biological target: T14, PLCG1-C SH2 domain (Homo sapiens, UniProt P19174); experiment: biochemical; type: binding; conditions: protein PLCG1-C; high-confidence ErbB interactions; mean of replicate hits
T14 construct: The 6X His-tagged SH2 domain proteins used in the assay, PLCG1-C, SHC4, VAV2; thioredoxin; made in house; host or cells: E. coli BL21(DE3)pLysS
T14 sequence (P19174 668-756 limits assumed): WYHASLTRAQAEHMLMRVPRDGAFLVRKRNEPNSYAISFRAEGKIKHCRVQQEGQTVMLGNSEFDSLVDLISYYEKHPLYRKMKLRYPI

T8 sequence (P12931 151-248 limits assumed): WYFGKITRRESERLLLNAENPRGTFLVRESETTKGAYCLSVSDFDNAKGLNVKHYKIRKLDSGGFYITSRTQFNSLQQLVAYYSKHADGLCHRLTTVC
Chain of PIK3R2-NC tandem SH2 domains (O00459 330-716 limits assumed): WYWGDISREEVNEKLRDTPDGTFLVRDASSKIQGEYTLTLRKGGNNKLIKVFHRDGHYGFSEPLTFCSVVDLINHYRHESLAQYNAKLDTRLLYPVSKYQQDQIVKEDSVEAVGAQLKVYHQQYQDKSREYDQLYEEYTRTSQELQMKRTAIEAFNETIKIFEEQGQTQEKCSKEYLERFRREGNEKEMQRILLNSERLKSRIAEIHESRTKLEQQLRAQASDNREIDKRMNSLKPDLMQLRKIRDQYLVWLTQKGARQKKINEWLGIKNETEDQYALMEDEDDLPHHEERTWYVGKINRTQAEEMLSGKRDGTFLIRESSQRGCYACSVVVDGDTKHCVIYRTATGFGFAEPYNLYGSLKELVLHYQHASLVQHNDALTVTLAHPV
T7 sequence (P07947 158-255 limits assumed): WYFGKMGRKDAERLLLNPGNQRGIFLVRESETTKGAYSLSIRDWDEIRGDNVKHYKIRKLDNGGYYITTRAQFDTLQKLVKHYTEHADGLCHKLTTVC
T13 sequence (P27986 333-428 limits assumed): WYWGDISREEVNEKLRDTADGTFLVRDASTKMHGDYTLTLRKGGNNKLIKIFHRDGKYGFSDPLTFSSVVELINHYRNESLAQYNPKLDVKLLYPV
Chain of SH2D2A SH2 domain (Q9NP31 95-186 limits assumed): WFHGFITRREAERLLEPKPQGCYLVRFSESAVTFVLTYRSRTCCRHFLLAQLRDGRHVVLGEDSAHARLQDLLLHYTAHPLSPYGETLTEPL
Chain of GRB7 SH2 domain (Q14451 431-527 limits assumed): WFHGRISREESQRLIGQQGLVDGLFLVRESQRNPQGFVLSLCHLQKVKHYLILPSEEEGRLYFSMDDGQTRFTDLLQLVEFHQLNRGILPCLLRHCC
Chain of NCK2 SH2 domain (O43639 285-380 limits assumed): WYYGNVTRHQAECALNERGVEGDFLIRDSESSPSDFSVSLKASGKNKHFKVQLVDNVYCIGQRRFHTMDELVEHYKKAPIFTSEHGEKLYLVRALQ
T12 sequence (Q13882 78-170 limits assumed): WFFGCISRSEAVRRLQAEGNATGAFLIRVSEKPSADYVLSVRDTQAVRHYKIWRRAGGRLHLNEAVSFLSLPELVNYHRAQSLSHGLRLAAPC

## CC[C@H](C)[C@H](NC(=O)[C@H](Cc1c[nH]c2ccccc12)NC(=O)[C@H](CC(C)C)NC(=O)CNC(=O)[C@H](CCCCN)NC(=O)[C@H](Cc1ccc(OP(=O)(O)O)cc1)NC(=O)[C@@H](NC(=O)[C@@H](NC(=O)CNC(=O)[C@@H](N)Cc1ccccc1)[C@@H](C)O)C(C)C)C(=O)N1CCC[C@H]1C(=O)N[C@@H](CCC(=O)O)C(=O)N[C@@H](CC(=O)O)C(=O)O [ErbB1 pY727] (HELM PEPTIDE1{F.G.T.V.[O=C([C@H](Cc1ccc(OP(=O)(O)O)cc1)N[*:1])[*:2]].K.G.L.W.I.P.E.D}$$$$V2.0)
[1]
  Kd: 11.5 µM
[2]
  Kd: 3.15 µM
SH2D1A SH2 domain
  Kd: 2710 nM
SH2D1A SH2 domain; FP saturation assay
  KD range of recruitment of SH2D1A (SHD1A [sic]): in the nM KD range
SH2D1B SH2 domain
  Kd: 240 nM
SH2D1B SH2 domain; FP saturation assay
  KD range of recruitment of SH2D1B: in the nM KD range

## CC(C)C[C@H](NC(=O)[C@H](Cc1ccc(OP(=O)(O)O)cc1)NC(=O)[C@H](CCC(=O)O)NC(=O)[C@@H]1CCCN1C(=O)[C@H](CC(N)=O)NC(=O)[C@@H](N)CCC(=O)O)C(=O)N[C@H](C(=O)N1CCC[C@H]1C(=O)N[C@@H](CCC(N)=O)C(=O)NCC(=O)NCC(=O)N[C@@H](C)C(=O)N[C@@H](CC(=O)O)C(=O)O)[C@@H](C)O [ErbB2 1196 13-mer]
NCK2 SH2 domain
  Kd: 3.72 µM

## CC(C)C[C@H](NC(=O)[C@H](CC(N)=O)NC(=O)[C@H](CC(=O)O)NC(=O)[C@@H](N)Cc1ccccc1)C(=O)N[C@@H](Cc1ccc(OP(=O)(O)O)cc1)C(=O)N[C@@H](Cc1ccc(O)cc1)C(=O)N[C@@H](Cc1c[nH]c2ccccc12)C(=O)N[C@@H](CC(=O)O)C(=O)N[C@@H](CCC(N)=O)C(=O)N[C@@H](CC(=O)O)C(=O)N1CCC[C@H]1C(=O)N1CCC[C@H]1C(=O)N[C@@H](CCC(=O)O)C(=O)N[C@@H](CC(=O)O)C(=O)O [ErbB2 1221 13-mer] (HELM PEPTIDE1{F.D.N.L.[O=C([C@H](Cc1ccc(OP(=O)(O)O)cc1)N[*:1])[*:2]].Y.W.D.Q.D.P.P.E.D}$$$$V2.0)
[3]
  Kd: 2270 nM
[4]
  Kd: 11.2 µM
RASA1-N SH2 domain [5]
  Kd: 1120 nM
SHC1-PTB domain
  Kd: 1980 nM
YES1 SH2 domain; Protein YES1, FP saturation binding, mean over replicate hits
  Kd: 2.41 µM

## CSCC[C@H](NC(=O)[C@H](Cc1ccc(O)cc1)NC(=O)[C@H](CCC(=O)O)NC(=O)[C@H](Cc1ccc(OP(=O)(O)O)cc1)NC(=O)[C@H](CC(=O)O)NC(=O)[C@H](CCC(=O)O)NC(=O)[C@H](CC(=O)O)NC(=O)[C@@H]1CCCN1)C(=O)N[C@@H](CC(N)=O)C(=O)N[C@@H](CCCNC(=N)N)C(=O)N[C@@H](CCC(N)=O)C(=O)N[C@@H](CCCNC(=N)N)C(=O)N[C@@H](CC(=O)O)C(=O)O [ErbB3 pY1260] (HELM PEPTIDE1{P.D.E.D.[O=C([C@H](Cc1ccc(OP(=O)(O)O)cc1)N[*:1])[*:2]].E.Y.M.N.R.Q.R.D}$$$$V2.0)
RASA1-N SH2 domain [5]; read-out: Ki ( exp FP), competing peptide, RASA1N, Ki expected from FP, NI = no interaction
  Ki: > 20 µM
RASA1-N SH2 domain [6]
  Ki: 38.8 µM
GRB7 SH2 domain
  Kd: ≤ 100 nM

## CC[C@H](C)[C@H](NC(=O)[C@@H](N)CCC(=O)O)C(=O)NCC(=O)N[C@@H](Cc1c[nH]cn1)C(=O)N[C@@H](CO)C(=O)N1CCC[C@H]1C(=O)N1CCC[C@H]1C(=O)N1CCC[C@H]1C(=O)N[C@@H](C)C(=O)N[C@@H](Cc1ccc(OP(=O)(O)O)cc1)C(=O)N[C@H](C(=O)N1CCC[C@H]1C(=O)N[C@@H](CCSC)C(=O)N[C@@H](CO)C(=O)NCC(=O)N[C@@H](CC(N)=O)C(=O)N[C@@H](CCC(N)=O)C(=O)N[C@@H](CC(=O)O)C(=O)O)[C@@H](C)O [ErbB4 1056 18-mer] (HELM PEPTIDE1{E.I.G.H.S.P.P.P.A.[O=C([C@H](Cc1ccc(OP(=O)(O)O)cc1)N[*:1])[*:2]].T.P.M.S.G.N.Q.D}$$$$V2.0)
SRC SH2 domain; FP
  Kd: 9.47 µM

## CC(C)C[C@H](NC(=O)[C@H](Cc1ccc(O)cc1)NC(=O)[C@H](CC(C)C)NC(=O)[C@@H]1CCCN1C(=O)[C@H](CCC(=O)O)NC(=O)[C@H](CC(N)=O)NC(=O)[C@@H](NC(=O)[C@H](Cc1ccc(OP(=O)(O)O)cc1)NC(=O)[C@H](CCC(=O)O)NC(=O)[C@H](CC(=O)O)NC(=O)[C@H](CCC(=O)O)NC(=O)[C@H](C)NC(=O)[C@H](CCCCN)NC(=O)[C@@H]1CCCN1C(=O)[C@@H]1CCCN1C(=O)CNC(=O)[C@@H](N)CC(N)=O)C(C)C)C(=O)N[C@@H](CC(=O)O)C(=O)O [ErbB4 1202 18-mer] (HELM PEPTIDE1{N.G.P.P.K.A.E.D.E.[O=C([C@H](Cc1ccc(OP(=O)(O)O)cc1)N[*:1])[*:2]].V.N.E.P.L.Y.L.D}$$$$V2.0)
[4]
  Kd: 1.84 µM
GRAP2 SH2 domain
  Kd: 2290 nM
SH2D2A SH2 domain
  Kd: 6 µM
PIK3R3-N SH2 domain
  Kd: 2410 nM
SRC SH2 domain
  Kd: 2.3 µM
[7]
  Kd: 1210 nM
PTK6 SH2 domain
  Kd: 2040 nM
YES1 SH2 domain; protein YES1, mean of replicate hits
  Kd: 8.4 µM
PIK3R1-N SH2 domain
  Kd: 5.39 µM
PLCG1-C SH2 domain
  Kd: 1920 nM
